Experiments:
[1] = system: mouse; conditions: Prenatal developmental toxicity study, other, Injection, Intraperitoneal, dose end: 15 GD
[2] = system: rat; conditions: Fertility (Segment I); wistar; Injection; Subcutaneous; group: parental; systemic / organ weight / prostate / nos
[3] = system: rat; conditions: Subchronic oral toxicity in rodents, fischer, Feed, dose end: 13 week, group: systemic
[4] = system: dog; conditions: Chronic toxicity; beagle; Oral; Feed; dose end: 52 week; group: systemic; systemic / organ weight / thyroid gland / absolute + systemic / organ weight / thyroid gland / relative to body weight + systemic / …
[5] = system: rat; conditions: Multigenerational reproductive toxicity study, sprague dawley, Oral, Feed, dose end: 2 generation, group: parental
[6] = system: dog; conditions: Subchronic oral toxicity in nonrodent, beagle, Feed, dose end: 15 week, group: systemic, systemic / organ weight / liver / absolute + systemic / organ weight / liver / relative to body weight + systemic / pathology microscopic / …
[7] = system: rabbit; conditions: Prenatal developmental toxicity study, new zealand white, Oral, Gavage/Intubation, dose end: 19 GD, group: maternal
[8] = system: rat; conditions: Subchronic oral toxicity in rodents, sprague dawley, Feed, dose end: 3 month, group: systemic, systemic / clinical chemistry / glucose / glucose + systemic / hematology / erythrocyte (rbc) count differential / erythrocyte (rbc) + …
[9] = system: rat; conditions: Prenatal developmental toxicity study, other, Oral, Gavage/Intubation, dose end: 15 GD
[10] = system: mouse; conditions: Carcinogenicity; cd1; Oral; Feed; dose end: 18 month; group: systemic; systemic / in life observation / body weight / body weight + systemic / in life observation / body weight / body weight gain + systemic / in…
[11] = system: rat; conditions: Prenatal developmental toxicity study, sprague dawley, Oral, Gavage/Intubation, dose end: 15 GD
[12] = system: dog; conditions: Chronic toxicity; beagle; Oral; Feed; dose end: 52 week; group: systemic; systemic / in life observation / body weight / body weight gain
[13] = system: dog; conditions: Subchronic oral toxicity in nonrodent, beagle, Feed, dose end: 6 month, group: systemic
[14] = system: dog; conditions: Subchronic oral toxicity in nonrodent, beagle, Feed, dose end: 6 month, group: systemic; remark: listed apart in the source
[15] = group: developmental, developmental / developmental malformation / bone / misshapen + developmental / developmental malformation / bone / short + developmental / …
[16] = group: maternal, reproductive / reproductive performance / resorptions / resorptions
[17] = systemic / in life observation / body weight / body weight + systemic / in life observation / food consumption / food consumption + systemic…
[18] = systemic / in life observation / body weight / body weight + systemic / pathology microscopic / thyroid gland / hyperplasia
[19] = systemic / pathology microscopic / thyroid gland / hyperplasia + systemic / pathology microscopic / thyroid gland / hypertrophy + systemic…
[20] = systemic / in life observation / clinical signs / tremors
[21] = systemic / in life observation / clinical signs / tremors + reproductive / reproductive performance / aborted / aborted + systemic / …
[22] = group: developmental, developmental / developmental malformation / bone / incomplete ossification + systemic / in life observation / body weight / fetal weight
[23] = group: maternal, systemic / hematology / hematocrit (hct) / hematocrit (hct) + systemic / hematology / hemoglobin (hgb) / hemoglobin (hgb) + systemic / …
[24] = group: developmental, systemic / in life observation / body weight / fetal weight
[25] = group: maternal, reproductive / reproductive performance / implantations / implantations + systemic / in life observation / body weight / body weight gain + …
[26] = systemic / in life observation / body weight / body weight gain
[27] = systemic / in life observation / body weight / body weight gain + systemic / in life observation / food consumption / food consumption

Question: Which results are given for `NC(=O)N1c2ccccc2C=Cc2ccccc21` [Carbamazepine]?
Answer: LEL [1, 15]: 15 mg/kg/day; LOAEL [1, 15]: > 30 mg/kg/day; NEL [1, 15]: < 15 mg/kg/day; NOAEL [1, 15]: ≥ 30 mg/kg/day; LEL [1, 16]: 15 mg/kg/day; LOAEL [1, 16]: > 30 mg/kg/day; NEL [1, 16]: < 15 mg/kg/day; NOAEL [1, 16]: ≥ 30 mg/kg/day; LEL [2]: 20 mg/kg/day; LOAEL [2]: > 20 mg/kg/day; NEL [2]: < 20 mg/kg/day; NOAEL [2]: ≥ 20 mg/kg/day

Question: `S=C1NCCN1` [Ethylene thiourea] was tested. Which LOAEL [3, 17] did it give?
Answer: > 150 mg/kg/day

Question: And the NOAEL [3, 17]?
Answer: ≥ 150 mg/kg/day

Question: What about the LEL [3, 18] of the same molecule?
Answer: 12 mg/kg/day

Question: What about the NEL [3, 18] of the same molecule?
Answer: < 12 mg/kg/day

Question: And the LEL [4]?
Answer: 1.79 mg/kg/day

Question: And the LOAEL [4]?
Answer: 1.79 mg/kg/day

Question: What about the NEL [4] of the same molecule?
Answer: 0.19 mg/kg/day

Question: And the NOAEL [4]?
Answer: 0.19 mg/kg/day

Question: What about the LOAEL ([5]; systemic / pathology microscopic / thyroid gland / hyperplasia + systemic / pathology microscopic / thyroid gland / hypertrophy) of the same molecule?
Answer: 1.25 mg/kg/day

Question: And the LEL [5, 19]?
Answer: 1.25 mg/kg/day

Question: And the NEL [5, 19]?
Answer: 0.125 mg/kg/day

Question: What about the NOAEL [5, 19] of the same molecule?
Answer: 0.125 mg/kg/day

Question: `CC(C)(C)N(NC(=O)c1ccc(Cl)cc1)C(=O)c1ccccc1` [Halofenozide] was tested. Which LEL [6] did it give?
Answer: 11.5 mg/kg/day

Question: What about the LOAEL [6] of the same molecule?
Answer: 11.5 mg/kg/day

Question: What about the NEL [6] of the same molecule?
Answer: 4 mg/kg/day

Question: What about the NOAEL [6] of the same molecule?
Answer: 4 mg/kg/day

Question: And the LEL [7, 20]?
Answer: 20 mg/kg/day

Question: What about the LOAEL [7, 20] of the same molecule?
Answer: 20 mg/kg/day

Question: What about the NEL [7, 21] of the same molecule?
Answer: 10 mg/kg/day

Question: What about the NOAEL [7, 21] of the same molecule?
Answer: 10 mg/kg/day

Question: And the LEL [8]?
Answer: 52.7 mg/kg/day

Question: What about the LOAEL [8] of the same molecule?
Answer: 52.7 mg/kg/day

Question: And the NEL [8]?
Answer: 5.53 mg/kg/day

Question: What about the NOAEL [8] of the same molecule?
Answer: 5.53 mg/kg/day

Question: What about the LEL [9, 22] of the same molecule?
Answer: 180 mg/kg/day

Question: What about the LOAEL [9, 22] of the same molecule?
Answer: 180 mg/kg/day

Question: What about the NEL [9, 22] of the same molecule?
Answer: 30 mg/kg/day

Question: And the NOAEL [9, 22]?
Answer: 30 mg/kg/day

Question: What about the LEL [9, 23] of the same molecule?
Answer: 180 mg/kg/day

Question: What about the LOAEL [9, 23] of the same molecule?
Answer: 180 mg/kg/day

Question: What about the NEL [9, 23] of the same molecule?
Answer: 30 mg/kg/day

Question: What about the NOAEL [9, 23] of the same molecule?
Answer: 30 mg/kg/day

Question: What does the source list for `CCc1cccc(C)c1N(C(=O)CCl)C(C)COC` (stereo not drawn) [Metolachlor]?
Answer: LEL [10]: 450 mg/kg/day; LOAEL [10]: 450 mg/kg/day; NEL [10]: 150 mg/kg/day; NOAEL [10]: 150 mg/kg/day; LEL [11, 24]: 1000 mg/kg/day; LOAEL [11, 24]: 1000 mg/kg/day; NEL [11, 24]: 300 mg/kg/day; NOAEL [11, 24]: 300 mg/kg/day; LOAEL [11, 25]: 1000 mg/kg/day; NEL [11, 25]: 100 mg/kg/day; NOAEL [11, 25]: 300 mg/kg/day; LEL ([11]; group: maternal, systemic / in life observation / clinical signs / salivation): 300 mg/kg/day; LEL [12]: 33 mg/kg/day; LOAEL [12]: 33 mg/kg/day; NEL [12]: 9.7 mg/kg/day; NOAEL [12]: 9.7 mg/kg/day; LOAEL [13, 26]: 29.4 mg/kg/day; LEL [13, 27]: 29.4 mg/kg/day; NEL [13, 27]: 8.77 mg/kg/day; NOAEL [13, 27]: 8.77 mg/kg/day; LOAEL [14, 26]: 29.4 mg/kg/day; LEL [14, 27]: 29.4 mg/kg/day; NEL [14, 27]: 8.77 mg/kg/day; NOAEL [14, 27]: 8.77 mg/kg/day
